Assay results taken from ChEMBL document CHEMBL4000244, “Probing A-form DNA: A fluorescent aminosugar probe and dual recognition by anthraquinone-neomycin conjugates” (Bioorg Med Chem, 2017).

Key:
[1] = Binding affinity to 5'-CCGCGGCC-3' DNA hairpin assessed as change in fluorescence intensity at 1 uM after 45 mins by fluorescence quenching analysis relative to control
[2] = Binding affinity to 5'-GGGGGGCG-3' DNA hairpin assessed as change in fluorescence intensity at 1 uM after 45 mins by fluorescence quenching analysis relative to control
[3] = Binding affinity to 5'-GGGGGGCC-3' DNA hairpin assessed as change in fluorescence intensity at 1 uM after 45 mins by fluorescence quenching analysis relative to control
[4] = Binding affinity to 5'-CCCGGCCG-3' DNA hairpin assessed as change in fluorescence intensity at 1 uM after 45 mins by fluorescence quenching analysis relative to control
[5] = Binding affinity to 5'-GGCGGGCC-3' DNA hairpin assessed as change in fluorescence intensity at 1 uM after 45 mins by fluorescence quenching analysis relative to control
[6] = Binding affinity to 5'-GGGCCGGC-3' DNA hairpin assessed as change in fluorescence intensity at 1 uM after 45 mins by fluorescence quenching analysis relative to control
[7] = Binding affinity to 5'-CGCCGCCG-3' DNA hairpin assessed as change in fluorescence intensity at 1 uM after 45 mins by fluorescence quenching analysis relative to control
[8] = Binding affinity to 5'-CCCCGGGG-3' DNA hairpin assessed as change in fluorescence intensity at 1 uM after 45 mins by fluorescence quenching analysis relative to control
[9] = Binding affinity to 5'-CCCGCGGG-3' DNA hairpin assessed as change in fluorescence intensity at 1 uM after 45 mins by fluorescence quenching analysis relative to control
[10] = Binding affinity to 5'-CGCGGCCG-3' DNA hairpin assessed as change in fluorescence intensity at 1 uM after 45 mins by fluorescence quenching analysis relative to control
[11] = Binding affinity to 5'-CCCGCCGG-3' DNA hairpin assessed as change in fluorescence intensity at 1 uM after 45 mins by fluorescence quenching analysis relative to control
[12] = Binding affinity to 5'-GGCGCGGC-3' DNA hairpin assessed as change in fluorescence intensity at 1 uM after 45 mins by fluorescence quenching analysis relative to control
[13] = Binding affinity to 5'-GCCGGCCC-3' DNA hairpin assessed as change in fluorescence intensity at 1 uM after 45 mins by fluorescence quenching analysis relative to control
[14] = Binding affinity to 5'-GGGCCCCC-3' DNA hairpin assessed as change in fluorescence intensity at 1 uM after 45 mins by fluorescence quenching analysis relative to control
[15] = Binding affinity to 5'-GGGGCCCG-3' DNA hairpin assessed as change in fluorescence intensity at 1 uM after 45 mins by fluorescence quenching analysis relative to control
[16] = Binding affinity to 5'-CGGGCGGC-3' DNA hairpin assessed as change in fluorescence intensity at 1 uM after 45 mins by fluorescence quenching analysis relative to control
[17] = Binding affinity to 5'-GCGGCCCC-3' DNA hairpin assessed as change in fluorescence intensity at 1 uM after 45 mins by fluorescence quenching analysis relative to control
[18] = Binding affinity to 5'-GGCGCCCC-3' DNA hairpin assessed as change in fluorescence intensity at 1 uM after 45 mins by fluorescence quenching analysis relative to control
[19] = Binding affinity to 5'-GGGCGGGG-3' DNA hairpin assessed as change in fluorescence intensity at 1 uM after 45 mins by fluorescence quenching analysis relative to control
[20] = Binding affinity to 5'-CGCGCGGG-3' DNA hairpin assessed as change in fluorescence intensity at 1 uM after 45 mins by fluorescence quenching analysis relative to control
[21] = Binding affinity to 5'-CCCCCGGC-3' DNA hairpin assessed as change in fluorescence intensity at 1 uM after 45 mins by fluorescence quenching analysis relative to control
[22] = Binding affinity to 5'-GCGCGGCC-3' DNA hairpin assessed as change in fluorescence intensity at 1 uM after 45 mins by fluorescence quenching analysis relative to control
[23] = Binding affinity to 5'-GGCGGGGG-3' DNA hairpin assessed as change in fluorescence intensity at 1 uM after 45 mins by fluorescence quenching analysis relative to control
[24] = Binding affinity to 5'-CCCCGCGC-3' DNA hairpin assessed as change in fluorescence intensity at 1 uM after 45 mins by fluorescence quenching analysis relative to control
[25] = Binding affinity to 5'-GGGGGCGG-3' DNA hairpin assessed as change in fluorescence intensity at 1 uM after 45 mins by fluorescence quenching analysis relative to control
[26] = Binding affinity to 5'-CGGCCGGC-3' DNA hairpin assessed as change in fluorescence intensity at 1 uM after 45 mins by fluorescence quenching analysis relative to control
[27] = Binding affinity to 5'-GGGCCCGC-3' DNA hairpin assessed as change in fluorescence intensity at 1 uM after 45 mins by fluorescence quenching analysis relative to control
[28] = Binding affinity to 5'-CGCGGGGG-3' DNA hairpin assessed as change in fluorescence intensity at 1 uM after 45 mins by fluorescence quenching analysis relative to control
[29] = Binding affinity to 5'-CGGCCCGC-3' DNA hairpin assessed as change in fluorescence intensity at 1 uM after 45 mins by fluorescence quenching analysis relative to control
[30] = Binding affinity to 5'-GGGGGCCG-3' DNA hairpin assessed as change in fluorescence intensity at 1 uM after 45 mins by fluorescence quenching analysis relative to control
[31] = Binding affinity to 5'-CCGGCGCC-3' DNA hairpin assessed as change in fluorescence intensity at 1 uM after 45 mins by fluorescence quenching analysis relative to control
[32] = Binding affinity to 5'-GCCGGCGG-3' DNA hairpin assessed as change in fluorescence intensity at 1 uM after 45 mins by fluorescence quenching analysis relative to control
[33] = Binding affinity to 5'-GCCCGCGC-3' DNA hairpin assessed as change in fluorescence intensity at 1 uM after 45 mins by fluorescence quenching analysis relative to control
[34] = Binding affinity to 5'-GGGCCCCG-3' DNA hairpin assessed as change in fluorescence intensity at 1 uM after 45 mins by fluorescence quenching analysis relative to control
[35] = Binding affinity to 5'-GGCCCCCC-3' DNA hairpin assessed as change in fluorescence intensity at 1 uM after 45 mins by fluorescence quenching analysis relative to control
[36] = Binding affinity to 5'-CGGCGGGG-3' DNA hairpin assessed as change in fluorescence intensity at 1 uM after 45 mins by fluorescence quenching analysis relative to control

Activity [1]: 50.6% | Activity [2]: 46.3% | Activity [3]: 32.2% | Activity [4]: 44.5% | Activity [5]: 53.2% | Activity [6]: 44.4% | Activity [7]: 48.1% | Activity [8]: 32.7% | Activity [9]: 40.3% | Activity [10]: 42% | Activity [11]: 50.9% | Activity [12]: 49.4% | Activity [13]: 37.6% | Activity [14]: 15% | Activity [15]: 29.7% | Activity [16]: 45.1% | Activity [17]: 37.2% | Activity [18]: 37.8% | Activity [19]: 45.3% | Activity [20]: 49.9% | Activity [21]: 33.7% | Activity [22]: 50.4% | Activity [23]: 41.5% | Activity [24]: 41.4% | Activity [25]: 38.3% | Activity [26]: 44.9% | Activity [27]: 30.6% | Activity [28]: 40.6% | Activity [29]: 39.9% | Activity [30]: 29.9% | Activity [31]: 48.9% | Activity [32]: 53.8% | Activity [33]: 40.4% | Activity [34]: 18.1% | Activity [35]: 15% | Activity [36]: 50.8%
Structure (SMILES): NCC1O[C@H](O[C@H]2[C@@H](O)[C@H](O[C@@H]3[C@@H](O)[C@H](N)C[C@H](N)[C@H]3O[C@H]3O[C@H](CN)[C@@H](O)[C@H](O)[C@H]3N)O[C@@H]2CSCCNC(=O)CCSCC(=O)Nc2ccc(-c3c4ccc(=O)cc-4oc4cc(O)ccc34)c(C(=O)O)c2)[C@H](N)[C@@H](O)[C@@H]1O (stereo partly specified)
